Experimental findings from ChEMBL document CHEMBL6083262, “Stereorandomized Oncocins with Preserved Ribosome Binding and Antibacterial Activity” (J Med Chem, 2024) are described below.

Values after ≈ are worked out from the molar mass of the structure shown. Active and inactive are the calls of the source. No cut-off for these calls is given here. Non-standard residues stand in square brackets, D forms with d. Residues, ends and D or L forms follow the SMILES beside them. ξ: configuration not given here. ξY = NC(Cc1ccc(O)cc1)C(=O)O; ξR = N=C(N)NCCCC(N)C(=O)O; ξN = NC(=O)CC(N)C(=O)O; ξI = CCC(C)C(N)C(=O)O; ξP = O=C(O)C1CCCN1

Data set [1] relates to Lipid bilayer. Nature of the data set: Induction of membrane disruption in egg yolk phosphatidyl choline at 10 ug/ml by measuring vesicle leakage. The note with it: dose 10.0 µg/ml.
The test system of data set [2] is rRNA. Nature of the data set: Binding affinity to [gamma32 P-ATP] labeled Escherichia coli MG1655 23S ribosomal RNA (5-CCCTTGGGACCTACTTC-3') at U2506 position assessed as increase in band intensity at 1 uM incubated for 2.5 hrs in full muller hinton medium by CMCT based gel electrophoresis. Type of data set: nucleic-acid assay.
Data set [3] has as its system Pseudomonas aeruginosa. Nature of the data set: Antibacterial activity against multidrug-resistant Pseudomonas aeruginosa PA14 incubated for 16 to 20 hrs in full muller hinton medium by broth microdilution method. Type of data set: functional. The note with it: time 16-20 hrs. (In general: Dilution methods test growth across graded concentrations, often in twofold steps.)

Data set [4] deals with Lipid bilayer. Nature of the data set: Induction of membrane disruption in egg yolk phosphatidyl glycerol at 10 ug/ml by measuring vesicle leakage. The note with it: dose 10.0 µg/ml.
Data set [5] deals with Klebsiella pneumoniae. The data set is described as follows: Bacteriostatic activity against Klebsiella pneumoniae assessed as small intracellular vesicles at 8 times MIC in full muller hinton medium by transmission electron microscopic analysis. Type of data set: functional, organism-based.
Data set [6] concerns Klebsiella pneumoniae. The data set is described as follows: Bacteriostatic activity against Klebsiella pneumoniae assessed as detachment of inner membrane from outer membrane by measuring a large void at 8 times MIC in full muller hinton medium by transmission electron microscopic analysis. Type of data set: functional, organism-based.
Data set [7] has as its system Escherichia coli. Nature of the data set: Bacteriostatic activity against Escherichia coli assessed as small intracellular vesicles at 8 times MIC in full muller hinton medium by transmission electron microscopic analysis. Type of data set: functional, organism-based.
Data set [8] deals with Pseudomonas aeruginosa. The data set is described as follows: Antibacterial activity against multidrug-resistant Pseudomonas aeruginosa PA14 2P4 harboring pmrB mutant incubated for 16 to 20 hrs in full muller hinton medium by broth microdilution method. The note with it: time 16-20 hrs. Type of data set: functional.
Data set [9] deals with Staphylococcus aureus. The data set is described as follows: Antimicrobial activity against methicillin-resistant Staphylococcus aureus COL incubated for 16 to 20 hrs in full muller hinton medium by broth microdilution method. Type of data set: functional. The note with it: time 16-20 hrs.
For data set [10], the system named is Escherichia coli. The data set is described as follows: Bacteriostatic activity against Escherichia coli assessed as membrane perturbation at 8 times MIC in full muller hinton medium by transmission electron microscopic analysis. Type of data set: functional, organism-based.
The subject of data set [11] is Klebsiella pneumoniae. The data set is described as follows: Bacteriostatic activity against Klebsiella pneumoniae assessed as membrane perturbation at 8 times MIC in full muller hinton medium by transmission electron microscopic analysis. Type of data set: functional, organism-based.
Data set [12] deals with Pseudomonas aeruginosa. The data set is described as follows: Antimicrobial activity against Pseudomonas aeruginosa PAO1 incubated for 16 to 20 hrs in 12.5 % muller hinton medium by broth microdilution method. Type of data set: functional. The note with it: time 16-20 hrs.
For data set [13], the system named is Escherichia coli. Nature of the data set: Bacteriostatic activity against Escherichia coli at 8 times MIC in full muller hinton medium by Time-kill assay. Type of data set: functional, organism-based.
Data set [14] can be described thus: Hemolytic activity in human RBC incubated for 4 hrs. Type of data set: toxicity, cell-based. The note with it: erythrocyte.
Data set [15] deals with Enterobacter cloacae. The data set is described as follows: Antibacterial activity against multidrug-resistant Enterobacter cloacae incubated for 16 to 20 hrs in 12.5 % muller hinton medium by broth microdilution method. Type of data set: functional. The note with it: time 16-20 hrs.
The test system of data set [16] is Klebsiella pneumoniae. Nature of the data set: Bacteriostatic activity against Klebsiella pneumoniae at 8 times MIC in full muller hinton medium by Time-kill assay. Type of data set: functional, organism-based.
In data set [17] the test system is Escherichia coli. Nature of the data set: Bacteriostatic activity against Escherichia coli assessed as detachment of inner membrane from outer membrane by measuring a large void at 8 times MIC in full muller hinton medium by transmission electron microscopic analysis. Type of data set: functional, organism-based.
Data set [18] has as its system Pseudomonas aeruginosa. Nature of the data set: Antibacterial activity against multidrug-resistant Pseudomonas aeruginosa clinical isolate ZEM9A incubated for 16 to 20 hrs in full muller hinton medium by broth microdilution method. Type of data set: functional. The note with it: time 16-20 hrs.
Data set [19] concerns Escherichia coli. The data set is described as follows: Antimicrobial activity against Escherichia coli W3110 incubated for 16 to 20 hrs in full muller hinton medium by broth microdilution method. Type of data set: functional. The note with it: time 16-20 hrs.
Data set [20] concerns Staphylococcus aureus. The data set is described as follows: Antimicrobial activity against methicillin-resistant Staphylococcus aureus COL incubated for 16 to 20 hrs in 12.5 % muller hinton medium by broth microdilution method. Type of data set: functional. The note with it: time 16-20 hrs.
Data set [21] deals with Enterobacter cloacae. Nature of the data set: Antibacterial activity against multidrug-resistant Enterobacter cloacae incubated for 16 to 20 hrs in full muller hinton medium by broth microdilution method. The note with it: time 16-20 hrs. Type of data set: functional.

As to `CCC(C)C(NC(=O)C(CCCNC(=N)N)NC(=O)[C@H](CCCNC(=N)N)NC(=O)[C@@H]1CCCN1C(=O)[C@@H]1CCCN1C(=O)[C@H](CCCNC(=N)N)NC(=O)[C@@H]1CCCN1C(=O)[C@H](CCCNC(=N)N)NC(=O)[C@@H]1CCCN1C(=O)[C@H](CC(C)C)NC(=O)[C@H](Cc1ccc(O)cc1)NC(=O)[C@@H]1CCCN1C(=O)[C@@H]1CCCN1C(=O)[C@H](CCCCN)NC(=O)[C@H](CC(=O)O)NC(=O)[C@@H](N)C(C)C)C(=O)NC(Cc1ccc(O)cc1)C(=O)NC(CC(N)=O)C(=O)NC(CCCNC(=N)N)C(N)=O` (stereo not given in full) (H-VDKPPYLPRPRPPR[ξR][ξI][ξY][ξN][ξR]-NH2), the result in data set [1], in data set [2], in data set [4], in [5], in data set [6] and in [7] was Active. The result in [13], in data set [16] and in [17] was Active. Moreover, the MIC – broadly, the least concentration at which growth counts as inhibited – is greater than 64 µg/mL in data set [3]; greater than 64 µg/mL in data set [8]; greater than 64 µg/mL in data set [9]; 8 µg/mL (≈ 3.35 µM) in [12]; 1 µg/mL (≈ 0.418 µM) in data set [15]; greater than 64 µg/mL in data set [18]. The values for the MIC in data set [19] and in data set [20] were 4 µg/mL (≈ 1.67 µM) and greater than 16 µg/mL, respectively. Besides, the Activity result in data set [10] and in [11] was “Active; Few Membrane Perturbation Observed” each time. This molecule gave an MHC in [14] greater than 1000 µg/mL.
For the molecule `CCC(C)C(NC(=O)C(CCCNC(=N)N)NC(=O)C(CCCNC(=N)N)NC(=O)C1CCCN1C(=O)C1CCCN1C(=O)[C@H](CCCNC(=N)N)NC(=O)[C@@H]1CCCN1C(=O)[C@H](CCCNC(=N)N)NC(=O)[C@@H]1CCCN1C(=O)[C@H](CC(C)C)NC(=O)[C@H](Cc1ccc(O)cc1)NC(=O)[C@@H]1CCCN1C(=O)[C@@H]1CCCN1C(=O)[C@H](CCCCN)NC(=O)[C@H](CC(=O)O)NC(=O)[C@@H](N)C(C)C)C(=O)NC(Cc1ccc(O)cc1)C(=O)NC(CC(N)=O)C(=O)NC(CCCNC(=N)N)C(N)=O` (stereo not given in full) (H-VDKPPYLPRPR[ξP][ξP][ξR][ξR][ξI][ξY][ξN][ξR]-NH2), the result in [1], in data set [2], in data set [4], in data set [5], in data set [6] and in data set [7] was Active. The result in [13], in data set [16] and in data set [17] was Active. The minimum inhibitory concentration (MIC) in data set [21] was greater than 64 µg/mL; in data set [3], greater than 64 µg/mL; in [8], greater than 64 µg/mL; in [9], greater than 64 µg/mL; in data set [15], 0.5 µg/mL (≈ 0.209 µM); in data set [18] it was greater than 64 µg/mL. The molecule further registered an MIC in data set [20] greater than 16 µg/mL. Moreover, the Activity result in data set [10] and in [11] was “Active; Few Membrane Perturbation Observed” each time. The MHC in data set [14] was greater than 1000 µg/mL.
Consider `CCC(C)C(NC(=O)C(CCCNC(=N)N)NC(=O)C(CCCNC(=N)N)NC(=O)C1CCCN1C(=O)C1CCCN1C(=O)C(CCCNC(=N)N)NC(=O)[C@@H]1CCCN1C(=O)[C@H](CCCNC(=N)N)NC(=O)[C@@H]1CCCN1C(=O)[C@H](CC(C)C)NC(=O)[C@H](Cc1ccc(O)cc1)NC(=O)[C@@H]1CCCN1C(=O)[C@@H]1CCCN1C(=O)[C@H](CCCCN)NC(=O)[C@H](CC(=O)O)NC(=O)[C@@H](N)C(C)C)C(=O)NC(Cc1ccc(O)cc1)C(=O)NC(CC(N)=O)C(=O)NC(CCCNC(=N)N)C(N)=O` (stereo not given in full) (H-VDKPPYLPRP[ξR][ξP][ξP][ξR][ξR][ξI][ξY][ξN][ξR]-NH2), for which the result in [1], in data set [2], in data set [4], in data set [5], in data set [6] and in data set [7] was Active. In addition, the outcome in data set [13], in data set [16] and in data set [17] was Active. The MIC in data set [3], in data set [8], in data set [9] and in [18] was greater than 64 µg/mL in each case. Further, the Activity result in data set [10] and in data set [11] was “Active; Few Membrane Perturbation Observed” throughout. Further, in data set [14], the MHC was greater than 1000 µg/mL.
